For 28 molecules, IC50 results are on record in patent publication US20240217978A1 (CHONG KUN DANG PHARMACEUTICAL CORP., priority 2021, published 2024).

Broadly, the IC50 is the concentration needed to halve the response being measured.

Structures are written as SMILES.

This test deals with human adenosine A2a receptor (Homo sapiens (Human), UniProt P29274). As to the kind of experiment: A2a receptor binding affinity, [3H]-NECA radioligand binding test. Particulars: [3H]-NECA 37 nM; membrane from HEK-293 cells transfected with human adenosine A2a receptor. A digest of the protocol: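 Membranes from HEK-293 cells expressing human A2a receptor were incubated with [3H]-NECA (final 37 nM) and compound for 1 h at room temperature in 50 mM Tris, 10 mM MgCl2, 1 mM EDTA, pH 7.4. Bound ligand was filtered on PEI-coated plates and counted by scintillation to derive IC50 (μM).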
human adenosine A2a receptor, sequence (P29274 whole entry): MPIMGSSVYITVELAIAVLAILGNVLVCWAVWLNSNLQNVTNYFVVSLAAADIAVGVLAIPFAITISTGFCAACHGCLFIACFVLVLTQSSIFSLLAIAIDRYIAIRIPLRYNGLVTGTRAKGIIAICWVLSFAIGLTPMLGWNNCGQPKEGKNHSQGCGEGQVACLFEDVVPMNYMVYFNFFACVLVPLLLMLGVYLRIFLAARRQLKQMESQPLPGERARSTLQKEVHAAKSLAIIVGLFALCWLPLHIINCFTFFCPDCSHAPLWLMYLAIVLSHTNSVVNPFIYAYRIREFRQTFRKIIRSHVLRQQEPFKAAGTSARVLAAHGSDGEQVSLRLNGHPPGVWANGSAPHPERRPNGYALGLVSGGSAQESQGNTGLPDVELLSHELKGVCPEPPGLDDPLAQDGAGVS
As to `Nc1nc(N2CCC[C@H]2C(=O)N2CCN(CC(F)(F)C(F)F)CC2)nc2oc(-c3ccco3)nc12` [Example 271, (S)-(1-(7-amino-2-(furan-2-yl)oxazolo[5,4-d]pyrimidin-5-yl)pyrrolidin-2-yl)(4-(2,2,3,3-tetrafluoropropyl)piperazin-1-yl)methanone], the IC50 stood at 10 nM. This lies in the double-digit nanomolar range.

`Nc1nc(N[C@@H](CN2CCCCC2)C(=O)N2CCN(c3ccc(F)cc3F)CC2)nc2nc(-c3ccco3)nn12` [Example 272, (S)-2-((7-amino-2-(furan-2-yl)-[1,2,4]triazolo[1,5-a][1,3,5]triazin-5-yl)amino)-1-(4-(2,4-difluorophenyl)piperazin-1-yl)-3-(piperidin-1-yl)propan-1-one] yielded a half-maximal inhibitory concentration (IC50) of 15 nM.

For `Nc1nc(N[C@@H](CN2CCOCC2)C(=O)N2CCN(c3ccc(F)cc3F)CC2)nc2nc(-c3ccco3)nn12` [Example 273], the IC50 was 20 nM.

As to `CC(C)(O)C(=O)N1CCN(C(=O)[C@@H]2CCCN2c2nc(N)n3nc(-c4ccco4)nc3n2)CC1` [Example 274, 1-(4-((7-amino-2-(furan-2-yl)-[1,2,4]triazolo[1,5-a][1,3,5]triazin-5-yl)-L-prolyl)piperazin-1-yl)-2-hydroxy-2-methylpropan-1-one], the half-inhibitory concentration (IC50) came to 8 nM. Compared with the last molecule, the IC50 is about 2.5-fold lower.

For the molecule `CC(C)(O)CC(=O)N1CCN(C(=O)[C@@H]2CCN2c2nc(N)c3nc(-c4ccco4)sc3n2)CC1` [Example 275, (S)-1-(4-(1-(7-amino-2-(furan-2-yl)thiazolo[5,4-d]pyrimidin-5-yl)azetidin-2-carbonyl)piperazin-1-yl)-3-hydroxy-3-methylbutan-1-one], the IC50 stood at 26 nM.

As for `Nc1nc(N2CCC[C@H]2C(=O)N2CCCN(c3ccc(F)cc3F)CC2)nc2nc(-c3ccco3)nn12` [Example 276, (S)-(1-(7-amino-2-(furan-2-yl)-[1,2,4]triazolo[1,5-a][1,3,5]triazin-5-yl)pyrrolidin-2-yl)(4-(2,4-difluorophenyl)-1,4-diazepan-1-yl)methanone], the IC50 came to 7 nM.

`Nc1nc(N2CCC[C@H]2C(=O)N2CCCN(CC(F)(F)F)CC2)nc2nc(-c3ccco3)nn12` [Example 278, (S)-(1-(7-amino-2-(furan-2-yl)-[1,2,4]triazolo[1,5-a][1,3,5]triazin-5-yl)pyrrolidin-2-yl)(4-(2,2,2-trifluoroethyl)-1,4-diazepan-1-yl)methanone]: the IC50 came to 20 nM.

`Nc1nc(N2CCCC[C@H]2C(=O)N2CCN(CC(F)(F)C(F)F)CC2)nc2nc(-c3ccco3)nn12` [Example 279, (S)-(1-(7-amino-2-(furan-2-yl)-[1,2,4]triazolo[1,5-a][1,3,5]triazin-5-yl)piperidin-2-y1)(4-(2,2,3,3-tetrafluoropropyl)piperazin-1-yl)methanone] gave a concentration for half-maximal inhibition (IC50) of 14 nM.

Consider `Nc1nc(N2CCCC[C@H]2C(=O)N2CCN(CC(F)(F)C(F)(F)F)CC2)nc2nc(-c3ccco3)nn12` [Example 280, (S)-(1-(7-amino-2-(furan-2-yl)-[1,2,4]triazolo[1,5-a][1,3,5]triazin-5-yl)piperidin-2-yl)(4-(2,2,3,3,3-pentafluoropropyl)piperazin-1-yl)methanone], for which the IC50 was found to be 9 nM.

In turn, `Nc1nc(N2CCC[C@H]2C(=O)N2CCN(CCC(F)(F)F)CC2)nc2nc(-c3ccco3)nn12` [Example 281, (S)-(1-(7-amino-2-(furan-2-yl)-[1,2,4]triazolo[1,5-a][1,3,5]triazin-5-yl)pyrrolidin-2-yl)(4-(3,3,3-trifluoropropyl)piperazin-1-yl) methanone] showed a 50% inhibitory concentration (IC50) of 9 nM.

`CC(C)(CN1CCN(C(=O)[C@@H]2CCCN2c2nc(N)n3nc(-c4ccco4)nc3n2)CC1)C(F)(F)F` [Example 282, (S)-(1-(7-amino-2-(furan-2-yl)-[1,2,4]triazolo[1,5-a][1,3,5]triazin-5-yl)pyrrolidin-2-yl)(4-(3,3,3-trifluoro-2,2-dimethylpropyl)piperazin-1-yl)methanone] yielded an IC50 of 6 nM.

`Nc1nc(N2CCC[C@H]2C(=O)N2CCN(CC3(C(F)(F)F)CC3)CC2)nc2nc(-c3ccco3)nn12` [Example 283, (S)-(1-(7-amino-2-(furan-2-yl)-[1,2,4]triazolo[1,5-a][1,3,5]triazin-5-yl)pyrrolidin-2-yl)(4-((1-(trifluoromethyl)cyclopropyl)methyl)piperazin-1-yl)methanone] came in with an IC50 of 12 nM.

Take `Nc1nc(N2CCC[C@H]2C(=O)N2CCN(CC3(C(F)(F)F)CCC3)CC2)nc2nc(-c3ccco3)nn12` [Example 284, (S)-(1-(7-amino-2-(furan-2-yl)-[1,2,4]triazolo[1,5-a][1,3,5]triazin-5-yl)pyrrolidin-2-yl)(4-((1-(trifluoromethyl)cyclobutyl)methyl)piperazin-1-yl)methanone]: the IC50 turned out to be 5 nM.

With `Nc1nc(N2CCC[C@H]2C(=O)N2CCN(CC3(C(F)(F)F)CCCCC3)CC2)nc2nc(-c3ccco3)nn12` [Example 285], the concentration for half-maximal inhibition (IC50) was 0.2 nM.

`Nc1nc(N2CCC[C@H]2C(=O)N2CCN(CC3(C(F)(F)F)CCCCC3)CC2)nc2nc(-c3ccco3)nn12` [Example 286] showed a concentration for half-maximal inhibition (IC50) of 2 nM. Compared with the last molecule, the IC50 is about 10-fold higher.

In the case of `Nc1nc(N2CCC[C@H]2C(=O)N2CCC(C3CCN(CC(F)F)CC3)CC2)nc2nc(-c3ccco3)nn12` [Example 287, (S)-(1-(7-amino-2-(furan-2-yl)-[1,2,4]triazolo[1,5-a][1,3,5]triazin-5-yl)pyrrolidin-2-yl)(1′-(2,2-difluoroethyl)-[4,4′-bipiperidin]-1-yl)methanone], the 50% inhibitory concentration (IC50) was found to be 3 nM.

Consider `CC(F)(F)CN1CCC(C2CCN(C(=O)[C@@H]3CCCN3c3nc(N)n4nc(-c5ccco5)nc4n3)CC2)CC1` [Example 288, (S)-(1-(7-amino-2-(furan-2-yl)-[1,2,4]triazolo[1,5-a][1,3,5]triazin-5-yl)pyrrolidin-2-yl)(1′-(2,2-difluoropropyl)-[4,4′-bipiperidin]-1-yl)methanone], for which the IC50 was found to be 3 nM. This lies in the single-digit nanomolar range.

For the molecule `Nc1nc(N2CCC[C@H]2C(=O)N2CCC(C3CCN(CC(F)(F)C(F)F)CC3)CC2)nc2nc(-c3ccco3)nn12` [Example 289, (S)-(1-(7-amino-2-(furan-2-yl)-[1,2,4]triazolo[1,5-a][1,3,5]triazin-5-yl)pyrrolidin-2-yl)(1′-(2,2,3,3-tetrafluoropropyl)-[4,4′-bipiperidin]-1-yl)methanone], the IC50 was found to be 9 nM. Against the preceding molecule, the IC50 is about 3-fold higher.

`CC(C)(O)CC(=O)N1CCC(C2CCN(C(=O)[C@@H]3CCCN3c3nc(N)n4nc(-c5ccco5)nc4n3)CC2)CC1` [Example 290, 1-(1′-((7-amino-2-(furan-2-yl)-[1,2,4]triazolo[1,5-a][1,3,5]triazin-5-yl)-L-prolyl)-[4,4′-bipiperidin]-1-yl)-3-hydroxy-3-methylbutan-1-one]: the 50% inhibitory concentration (IC50) turned out to be 2 nM.

In turn, `Nc1nc(N2CCC[C@H]2C(=O)N2CCC(C3CCN(CCCC(F)(F)F)CC3)CC2)nc2nc(-c3ccco3)nn12` [Example 291, (S)-(1-(7-amino-2-(furan-2-yl)-[1,2,4]triazolo[1,5-a][1,3,5]triazin-5-yl)pyrrolidin-2-yl)(1′-(4,4,4-trifluorobutyl)-[4,4′-bipiperidin]-1-yl)methanone] displayed an IC50 of 5 nM.

As to `CC(C)(O)CC(=O)N1CCN(C(=O)[C@@H]2CCCN2c2cc3nc(-c4ccco4)nn3c(N)n2)CC1` [Example 292, 1-(4-((5-amino-2-(furan-2-yl)-[1,2,4]triazolo[1,5-c]pyrimidin-7-yl)-L-prolyl)piperazin-1-yl)-3-hydroxy-3-methylbutan-1-one], the IC50 was 21 nM.

As to `Nc1nc(N2CCC[C@H]2C(=O)N2CCN(CC(F)F)CC2)cc2nc(-c3ccco3)nn12` [Example 293, (S)-(1-(5-amino-2-(furan-2-yl)-[1,2,4]triazolo[1,5-c]pyrimidin-7-yl)pyrrolidin-2-yl)(4-(2,2-difluoroethyl)piperazin-1-yl)methanone], the half-maximal inhibitory concentration (IC50) turned out to be 3 nM.

Molecule `CC(F)(F)CN1CCN(C(=O)[C@@H]2CCCN2c2cc3nc(-c4ccco4)nn3c(N)n2)CC1` [Example 294, (S)-(1-(5-amino-2-(furan-2-yl)-[1,2,4]triazolo[1,5-c]pyrimidin-7-yl)pyrrolidin-2-yl)(4-(2,2-difluoropropyl)piperazin-1-yl)methanone] had a half-maximal inhibitory concentration (IC50) of 4 nM.

In turn, `CCC(F)(F)CN1CCN(C(=O)[C@@H]2CCCN2c2cc3nc(-c4ccco4)nn3c(N)n2)CC1` [Example 295, (S)-(1-(5-amino-2-(furan-2-yl)-[1,2,4]triazolo[1,5-c]pyrimidin-7-yl)pyrrolidin-2-yl)(4-(2,2-difluorobutyl)piperazin-1-yl)methanone] registered an IC50 of 1 nM. This IC50 is about 4-fold lower than that of the molecule before.

In the case of `Nc1nc(N2CCC[C@H]2C(=O)N2CCN(CC(F)(F)C(F)(F)F)CC2)cc2nc(-c3ccco3)nn12` [Example 296, (S)-(1-(5-amino-2-(furan-2-yl)-[1,2,4]triazolo[1,5-c]pyrimidin-7-yl)pyrrolidin-2-yl)(4-(2,2,3,3,3-pentafluoropropyl)piperazin-1-yl)methanone], the 50% inhibitory concentration (IC50) was 0.8 nM.

Take `Cc1ccc(-c2nc3nc(N4CCC[C@H]4C(=O)N4CCN(CC(F)F)CC4)nc(N)n3n2)o1` [Example 297, (S)-(1-(7-amino-2-(5-methylfuran-2-yl)-[1,2,4]triazolo[1,5-a][1,3,5]triazin-5-yl)pyrrolidin-2-yl)(4-(2,2-difluoroethyl)piperazin-1-yl)methanone]: the half-maximal inhibitory concentration (IC50) was 15 nM.

Turning to `Cc1ccc(-c2nc3nc(N4CCC[C@H]4C(=O)N4CCN(CC(F)(F)C(F)F)CC4)nc(N)n3n2)o1` [Example 298, (S)-(1-(7-amino-2-(5-methylfuran-2-yl)-[1,2,4]triazolo[1,5-a][1,3,5]triazin-5-yl)pyrrolidin-2-yl)(4-(2,2,3,3-tetrafluoropropyl)piperazin-1-yl) methanone], the 50% inhibitory concentration (IC50) came to 3 nM. Against the preceding molecule, the IC50 is about 5-fold lower.

`Cc1ccc(-c2nc3nc(N4CCC[C@H]4C(=O)N4CCN(CC(F)(F)C(F)(F)F)CC4)nc(N)n3n2)o1` [Example 299, (S)-(1-(7-amino-2-(5-methylfuran-2-yl)-[1,2,4]triazolo[1,5-a][1,3,5]triazin-5-yl)pyrrolidin-2-yl)(4-(2,2,3,3,3-pentafluoropropyl)piperazin-1-yl)methanone] showed an IC50 of 9 nM.
